# Measured values from patent US20210290597A1, “METHOD OF TREATING A CONDITION ASSOCIATED WITH NEURODEGENERATION USING INHIBITORS OF OAT3” (Neuropore Therapies, Inc., priority 2018, published 2021).
# What was measured:
# [1] = biological target: T1, human transporter OAT1 (Homo sapiens, UniProt Q4U2R8); experiment: In vitro ion transport assay 1, OAT1-mediated uptake in MDCK-II cells; assay type: cell-based; conditions: probe substrate 2 μM [3H]-p-aminohippurate
# T1 construct: expressed in transfected cells; host or cells: MDCK-II
# T1 sequence (Q4U2R8 1-563): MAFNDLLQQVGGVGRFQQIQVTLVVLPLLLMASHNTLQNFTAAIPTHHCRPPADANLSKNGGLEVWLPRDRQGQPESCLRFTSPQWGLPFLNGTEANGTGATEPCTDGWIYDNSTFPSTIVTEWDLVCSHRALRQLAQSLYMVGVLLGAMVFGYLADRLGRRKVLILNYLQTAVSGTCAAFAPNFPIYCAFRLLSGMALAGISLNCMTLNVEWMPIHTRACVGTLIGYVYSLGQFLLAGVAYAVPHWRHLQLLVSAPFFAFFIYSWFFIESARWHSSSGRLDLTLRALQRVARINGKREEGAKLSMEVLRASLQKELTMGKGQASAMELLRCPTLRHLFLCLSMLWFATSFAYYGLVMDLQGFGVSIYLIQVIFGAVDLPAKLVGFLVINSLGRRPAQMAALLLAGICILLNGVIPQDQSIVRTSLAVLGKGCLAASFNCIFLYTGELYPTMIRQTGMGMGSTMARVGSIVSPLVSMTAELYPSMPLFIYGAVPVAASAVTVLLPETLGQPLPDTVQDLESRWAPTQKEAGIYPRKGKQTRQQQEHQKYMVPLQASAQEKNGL
# Procedure: To determine the effect of the ion transporter inhibitors on the uptake activity of solute carrier (SLC) ion transporter proteins such as OAT1 and OAT3, an ion transport assay utilizing a polarized monolayer of MDCK-II cells grown on permeable supports was used. The MDCK-II cells were treated to express the transporter of interest (e.g., OAT3 or OAT 1) or were treated with a control vector. 96-well culture plates with both donor and receiver cells containing a monolayer of MDCK-II cells were maintained at 37° C. in 5% CO2 atmosphere. Radio-labeled para-aminohippurate ([3H]-PAH) was used as a substrate for measuring OAT1 and OAT3 mediated transport, where the transport of the substrate was determined by radiometric detection. OAT1-mediated transport was assayed using 2 μM of [3H]-PAH; OAT3-mediated transport was assayed using 10 μM of [3H]-PAH. The probe substrate for OAT1 was 2 μM [3H]-p-aminohippurate. The probe substrate for OAT3 was 10 μM [3H]p-aminohippurate. The reference inhibitor for both assays was 100 μM probenecid. Following pre incubation of the transfected MDCK-II cells in HBSS, [3H]-PAH was added at the concentrations described above. Wells were then treated with either reference inhibitor probeneic acid or with the test compound. Cells transfected with empty vector served as an additional control. […]
# [2] = biological target: T2, human transporter MATE2-K (Homo sapiens, UniProt Q86VL8); experiment: In vitro ion transport assay 1, MATE2-K; assay type: cell-based; conditions: probe substrate 10 μM [14C]-metformin
# T2 construct: expressed in transfected cells; host or cells: MDCK-II
# T2 sequence (Q86VL8 1-566 isoform Q86VL8-3): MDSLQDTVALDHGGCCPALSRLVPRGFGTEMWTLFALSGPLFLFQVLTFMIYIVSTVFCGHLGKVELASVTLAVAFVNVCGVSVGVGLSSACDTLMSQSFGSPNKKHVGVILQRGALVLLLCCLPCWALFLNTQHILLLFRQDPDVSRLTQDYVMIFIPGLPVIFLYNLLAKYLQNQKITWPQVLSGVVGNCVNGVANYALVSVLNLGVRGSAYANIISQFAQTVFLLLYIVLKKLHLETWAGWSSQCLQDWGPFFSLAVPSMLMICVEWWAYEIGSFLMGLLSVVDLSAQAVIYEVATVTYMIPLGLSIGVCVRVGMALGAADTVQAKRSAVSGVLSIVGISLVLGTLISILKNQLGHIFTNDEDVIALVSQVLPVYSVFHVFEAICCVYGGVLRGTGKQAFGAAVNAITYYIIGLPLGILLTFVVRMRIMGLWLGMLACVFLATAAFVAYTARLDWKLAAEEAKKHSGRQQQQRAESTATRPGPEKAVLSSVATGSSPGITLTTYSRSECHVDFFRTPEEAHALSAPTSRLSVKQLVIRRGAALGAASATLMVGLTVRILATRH
# Procedure: Compound 1 was studied in the concentration range of 0.1-100 μM for its potency against transport mediated by various transporter proteins. [table]
# [3] = system: glial fibrillary acidic protein (GFAP); experiment: GFAP IHC, L61 ASYN transgenic mice; assay type: in vivo
# Procedure: Neuroinflammation is also associated with increased expression of glial fibrillary acidic protein (GFAP) in activated astrocytes, which is induced by a variety of molecules including pro-inflammatory mediators released from activated microglia (Saijo et al. 2009). Increased expression of glial fibrillary acidic protein (GFAP) represents astroglial activation and gliosis during neurodegeneration. (Brahmachari et al., 2006). The effects of Compound 1 on GFAP expression were assessed in both L61 ASYN transgenic and non-transgenic mice in a 1 month administration study. After 30 days, the mice were sacrificed, and IHC detection of GFAP was assessed in the harvested brain tissues.
# The harvested brain tissues from treated mice were fixed (drop fixed in 4% PFA) and then sectioned into 40 micro thick sections using a vibratome. The representative sections containing the hippocampus were assessed for GFAP with standard immunohistochemistry staining. The general methods used for GFAP immunostaining follow those described in Rockenstein et al., J Neurosci Res. 2002, 68(5):568-78.
# [4] = system: amyloid beta; experiment: Amyloid beta staining (6E10), L41 APP transgenic mice; assay type: in vivo; conditions: 5 mg/kg daily i.p.
# Procedure: As described earlier, Line 41 transgenic mice express high levels of the mutant hAPP751 and develop mature plaques in the cortex, hippocampus, thalamus and olfactory region of mouse brain. The effects of Compound 1 on Amyloid beta plaque formation were assessed in both L41 APP transgenic and non-transgenic mice in a 1 month administration study. After 30 days, the mice were sacrificed, and immunofluorescence (IF) detection of amyloid beta were assessed in the harvested brain tissues.
# The harvested brain tissues were drop fixed using 4% PFA and sectioned on a vibratome, and representative sections containing the neuropil of cortex, hippocampus and striatum were assessed for amyloid beta with standard IHC staining.
# On approximately day 30, all subjects were euthanized within 2 hours of the last treatment and brain and other samples were collected. Brains were removed and divided sagitally. […]
# Prepared slides were imaged at 40× using a high-resolution Hamamatsu Nanozoomer™ scanner located in the Microscopy Core in the UCSD Department of Neurosciences. Digital images were then transferred to Neuropore and analyzed using the Halo® imaging software package (Indica Labs, Corrales, N. Mex.). […] Images were evaluated for specimen and imaging problems and any issues were noted prior to unblinding of samples and statistical analyses.
compound,measurement,setting,value
"O=S(=O)(c1ccc(-n2cn[nH]c2=S)cc1)c1ccc(Cl)c(C(F)(F)F)c1 [Compound 1, 4-(4-((4-chloro-3-(trifluoromethyl)phenyl)sulfonyl)phenyl)-2,4-dihydro-3H-1,2,4-triazole-3-thione]",IC50,[1],12.9 µM
same,IC50,[2],75.8 µM
same,"GFAP levels, IHC staining intensity in representative images",[3]; 5 mg/kg or 10 mg/kg daily i.p.,reducing cortical levels of GFAP
same,"GFAP levels, quantification of IHC staining",[3]; 10 mg/kg daily i.p.,reduces the cortical GFAP levels in a statistically significant manner
same,amyloid beta level vs vehicle-treated Line 41 mice,[4],reduces the amyloid beta level in a statistically significant manner
